Converted amounts (≈) assume the structure as drawn.

The results in this text go back to ChEMBL document CHEMBL1157500, “Spiroleptosphol isolated from Leptosphaeria doliolum” (Bioorg Med Chem Lett, 2008).

The assay deals with P388. As to the kind of experiment: Cytotoxicity against mouse P388 cells. Format: functional, cell-based.

Broadly, the EC50 is the concentration needed to bring the measured effect to its halfway point. Read a high EC50 as a less potent agent. `C=C1OC(=O)[C@@]2([C@H](/C=C/[C@H](C)C[C@H](C)CC)C=C[C@@H](O)[C@@H]2O)[C@H]1O` [SPIROLEPHTOSHOL] displayed an EC50 of 20 µg/mL (≈ 59.4 µM).
